In patent US4847247A, “Penicillin derivatives as anti-inflammatory and antidegenerative agents” (Merck & Co., Inc., priority 1986, dated 1989):

Target: T1, Human Polymorphonuclear Leukocyte Elastase (Homo sapiens, UniProt P08246)
T1 construct: Crude extract of human polymorphonuclear leukocytes (PMN) containing elastase activity; endogenous in cells; host or cells: human polymorphonuclear leukocytes (crude extract)
T1 sequence (P08246 30-247 limits assumed): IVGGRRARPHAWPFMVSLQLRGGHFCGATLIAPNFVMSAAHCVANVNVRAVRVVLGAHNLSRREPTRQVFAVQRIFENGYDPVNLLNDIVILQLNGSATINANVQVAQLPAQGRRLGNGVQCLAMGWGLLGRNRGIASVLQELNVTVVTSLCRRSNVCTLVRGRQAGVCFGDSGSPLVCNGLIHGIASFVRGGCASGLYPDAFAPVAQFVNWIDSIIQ
Assay: Inhibition of human polymorphonuclear leukocyte (granulocyte) elastase via hydrolysis of Boc-AAPAN
Format: biochemical
Settings: not given
Procedure: Enzyme assay for the Inhibition of Human Polymorphonuclear Leukocyte Elastase Via Hydrolysis of N-t-Boc-alanyl-alanyl-prolylalanine-p-nitroanilide
0.05M TES (N-tris[hydroxymethyl]methyl-2-amino-ethanesulfonic acid) buffer, pH 7.5.
0.2 mM N-t-Boc-alanyl-alanyl-prolyl-alanine-p-nitroanilide (Boc-AAPAN).
To prepare substrate, the solid (m.w. 550) was first dissolved in 10.0 ml DMSO. Buffer at pH 7.5 was then added to a final volume of 100 ml.
Crude extract of human polymorphonuclear leukocytes (PMN) containing elastase activity.
Inhibitors (cephalosporin sulfoxide esters) to be tested dissolved in DMSO just before use.
To 1.0 ml of 0.2 mM Boc-AAPAN in a cuvette, 0.01-0.1 ml of DMSO with or without inhibitor was added. After mixing, a measurement was taken at 410 mμ to detect any spontaneous hydrolysis due to of test compound. 0.05 Milliliters of PMN extract was then added and the αOD/minute at 410 mμ was measured and recorded. Beckman model 35 spectrophotometer was used.
The elastase activity in the crude PMN extract may vary from one preparation to another. A control of each new batch is run, and the volume added in the assay procedure is adjusted according to activity.

Compound	IC50
CC1(C)[C@H](C(=O)OCc2ccccc2)N2C(=O)[C@H](COC(=O)NCc3ccccc3)[C@H]2S1(=O)=O [6α-CH2 O(CO)NH(BZ) / 2 / OBZ]	8.22 µM
CCO[C@H]1C(=O)N2[C@@H](C(=O)OCc3ccc(C(=O)O)cc3)C(C)(C)S(=O)(=O)[C@H]12 [6α-OC2 H5 / 2 / OBZ(p-COOH)]	1.46 µM
CC1(C)[C@H](C(=O)OCc2ccccc2)N2C(=O)[C@@H](NC(=O)C(F)(F)F)[C@H]2S1(=O)=O [6β-CF3 CONH / 2 / OBZ]	4.6 µM
CC1(C)[C@H](C(=O)OCc2ccccc2)N2C(=O)[C@@H](COC(=O)NCc3ccccc3)[C@H]2S1(=O)=O [6β-CH2 O(CO)NH(BZ) / 2 / OBZ]	1.44 µM
CC(=O)O[C@H]1C(=O)N2[C@@H](C(=O)OCc3ccccc3)C(C)(C)S(=O)(=O)[C@H]12 [CH3 COO / 2 / OBZ, Benzyl 6α-acetoxypenicillanate-1,1-dioxide]	0.524 µM
CC(OC(=O)NCc1ccccc1)[C@H]1C(=O)N2[C@@H](C(=O)OCc3ccccc3)C(C)(C)S(=O)(=O)[C@H]12 (some centres unmarked) [drawing 28 / 2 / OBZ]	1.2 µM
Cc1ccc(S(=O)(=O)OC2C(=O)N3[C@@H](C(=O)OCc4ccccc4)C(C)(C)S(=O)(=O)[C@H]23)cc1 (some centres unmarked) [p-CH3 C6 H4 SO2 O(TsO) / 2 / OBZ]	0.101 µM

Same assay, conditions: crude human PMN extract, 0.2 mM Boc-AAPAN, pH 7.5, 410 mμ, 2 minutes after zero time; read-out: IC50 (dosage for 50% inhibition of the enzyme activity) (converted)

Compound	IC50
CC(O)[C@H]1C(=O)N2[C@@H]1SC(C)(C)[C@@H]2C(=O)OCc1ccccc1 (stereo partly drawn) [6α-CH3 CH(OH) / 0 / OBZ]	59.6 µM
CC1(C)[C@H](C(=O)OCc2ccccc2)N2C(=O)[C@H](OCc3ccccc3)[C@H]2S1(=O)=O [6α-OBZ / 2 / OBZ]	9.31 µM
CCO[C@H]1C(=O)N2[C@@H](C(=O)OCc3ccccc3)C(C)(C)S(=O)(=O)[C@H]12 [6α-OC2 H5 / 2 / OBZ, Benzyl 6α-ethoxypenicillanate-1,1-dioxide]	5.44 µM
CO[C@H]1C(=O)N2[C@@H](C(=O)Cc3ccccc3)C(C)(C)S(=O)(=O)[C@H]12 [6α-OCH3 / 2 / BZ]	5.93 µM
CO[C@H]1C(=O)N2[C@@H](C(=O)OCc3ccc(C(=O)O)cc3)C(C)(C)S(=O)(=O)[C@H]12 [6α-OCH3 / 2 / OBZ(p-COOH)]	5.03 µM
CO[C@H]1C(=O)N2[C@@H](C(=O)OCC(F)(F)F)C(C)(C)S(=O)(=O)[C@H]12 [6α-OCH3 / 2 / OCH2 CF3]	11.6 µM
CO[C@H]1C(=O)N2[C@@H](C(=O)OCC(=O)OC(C)(C)C)C(C)(C)S(=O)(=O)[C@H]12 [6α-OCH3 / 2 / OCH2 COOtBu]	7.95 µM
COC(=O)[C@@H]1N2C(=O)[C@H](OC)[C@H]2S(=O)(=O)C1(C)C [6α-OCH3 / 2 / OCH3]	72.1 µM
CN(Cc1ccccc1)C(=O)[C@@H]1N2C(=O)[C@@H](NC(=O)C(F)(F)F)[C@H]2SC1(C)C [6β-CF3 (CO)NH / 0 / N(CH3)(BZ), 2,2-diimethyl-6-(trifluoroacetamido)-3-(N-methyl-N-benzylcarbamoyl)penam]	1.44 µM
CN(Cc1ccccc1)C(=O)[C@@H]1N2C(=O)[C@@H](NC(=O)C(F)(F)F)[C@H]2S(=O)(=O)C1(C)C [6β-CF3 (CO)NH / 2 / N(CH3)(BZ), 2,2-Dimethyl-6-(trifluoro-acetamido)-3-(N-methyl-N-benzylcarbamoyl)penam-1,1-dioxide]	4.47 µM
COc1ccc(CNC(=O)[C@@H]2N3C(=O)[C@@H](NC(=O)C(F)(F)F)[C@H]3S(=O)(=O)C2(C)C)cc1 [6β-CF3 (CO)NH / 2 / NHBZ(p-OCH3)]	0.647 µM
CC1(C)[C@H](C(=O)OCc2ccc(C(=O)O)cc2)N2C(=O)[C@@H](NC(=O)C(F)(F)F)[C@H]2S1(=O)=O [6β-CF3 (CO)NH / 2 / OBZ(p-COOH)]	2.09 µM
CC(C)(C)OC(=O)c1ccc(COC(=O)[C@@H]2N3C(=O)[C@@H](NC(=O)C(F)(F)F)[C@H]3S(=O)(=O)C2(C)C)cc1 [6β-CF3 (CO)NH / 2 / OBZ(p-COOtBu)]	0.935 µM
CC1(C)S[C@@H]2[C@H](NC(=O)C(F)(F)F)C(=O)N2[C@H]1C(=O)OCc1ccccc1 [6β-CF3 CONH / 0 / OBZ, benzyl 6β-trifluoroacetamidopenicillanate]	29.8 µM
CC1(C)[C@H](C(=O)c2ccccc2)N2C(=O)[C@@H](NC(=O)C(F)(F)F)[C@H]2S1(=O)=O [6β-CF3 CONH / 2 / Ph]	2.47 µM
CC1(C)S[C@@H]2[C@H](COC(=O)NCc3ccccc3)C(=O)N2[C@H]1C(=O)OCc1ccccc1 [6β-CH2 O(CO)NH(BZ) / 0 / OBZ]	33 µM

Compound	IC50
CC1(C)S[C@@H]2C(OC(=O)COc3ccccc3)C(=O)N2[C@H]1C(=O)OCc1ccccc1 (some centres unmarked) [C6 H5 OCH2 COO / 0 / OBZ]	45.3 µM
CC1(C)[C@H](C(=O)OCc2ccccc2)N2C(=O)C(OC(=O)COc3ccccc3)[C@H]2[S+]1[O-] (some centres unmarked) [C6 H5 OCH2 COO / 1 / OBZ]	10.9 µM
CC(=O)O[C@H]1C(=O)N2[C@@H]1SC(C)(C)[C@@H]2C(=O)OCc1ccccc1 [CH3 COO / 0 / OBZ]	28.6 µM
CC(=O)O[C@H]1C(=O)N2[C@@H]1[S+]([O-])C(C)(C)[C@@H]2C(=O)OCc1ccccc1 (some centres unmarked) [CH3 COO / 1 / OBZ]	13.7 µM
CC(OC(=O)OCc1ccc([N+](=O)[O-])cc1)[C@H]1C(=O)N2[C@@H](C(=O)OCc3ccccc3)C(C)(C)S(=O)(=O)[C@H]12 (some centres unmarked) [drawing 27 / 2 / OBZ]	0.366 µM
C[C@@H](OC(=O)OCc1ccccc1)[C@H]1C(=O)N2[C@@H](C(=O)OCc3ccccc3)C(C)(C)S(=O)(=O)[C@H]12 [drawing 29 / 2 / OBZ]	0.0997 µM
CC(OC(=O)N(Cc1ccccc1)C(=O)NCc1ccccc1)[C@H]1C(=O)N2[C@@H](C(=O)OCc3ccccc3)C(C)(C)S(=O)(=O)[C@H]12 (some centres unmarked) [drawing 30 / 2 / OBZ]	0.0789 µM
Cc1ccc(S(=O)(=O)OC2C(=O)N3[C@@H]2[S+]([O-])C(C)(C)[C@@H]3C(=O)OCc2ccccc2)cc1 (some centres unmarked) [p-CH3 C6 H4 SO2 O(TsO) / 1 / OBZ]	4.19 µM
CO[C@]1(NC(=O)C(F)(F)F)C(=O)N2[C@@H](C(=O)OCc3ccccc3)C(C)(C)S(=O)(=O)[C@@H]21 [α-CF3 CONH / β-CH3 O / 2 / OBZ]	1.72 µM
CO[C@H]1C(=O)N2[C@@H]1SC(C)(COC(C)=O)[C@@H]2C(=O)OCc1ccccc1 (stereo partly drawn) [α-CH3 O / 0 / OBZ]	13.2 µM
CO[C@H]1C(=O)N2[C@@H]1[S+]([O-])C(C)(COC(C)=O)[C@@H]2C(=O)OCc1ccccc1 (stereo partly drawn) [α-CH3 O / 1 / OBZ]	10.1 µM
CO[C@H]1C(=O)N2[C@@H](C(=O)OCc3ccccc3)C(C)(COC(C)=O)S(=O)(=O)[C@H]12 (stereo partly drawn) [α-CH3 O / 2 / OBZ]	9.72 to 14.6 µM
CCC1(N(C)C(=O)C(F)(F)F)C(=O)N2C1[S+]([O-])C(C)(C)C2C(=O)OCc1ccccc1 (stereo not drawn) [β-CF3 CON(CH3) / α-C2 H5 / 1 / OBZ]	43.4 µM
CC[C@@]1(NC(=O)C(F)(F)F)C(=O)N2[C@@H](C(=O)OCc3ccccc3)C(C)(C)[S+]([O-])[C@@H]21 (stereo partly drawn) [β-CF3 CONH / α-C2 H5 / 1 / OBZ]	11.2 µM
CC[C@@]1(NC(=O)C(F)(F)F)C(=O)N2[C@@H](C(=O)OCc3ccccc3)C(C)(C)S(=O)(=O)[C@@H]21 [β-CF3 CONH / α-C2 H5 / 2 / OBZ, benzyl 6α-ethyl-6β-trifluoroacetamidopenicillanate-1,1-dioxide]	6.49 µM
CO[C@@]1(NC(=O)C(F)(F)F)C(=O)N2[C@@H](C(=O)OCc3ccccc3)C(C)(C)S(=O)(=O)[C@@H]21 [β-CF3 CONH / α-CH3 O / 2 / OBZ]	19.4 µM

Same assay, conditions: read-out: IC50 (dosage for 50% inhibition of the enzyme activity); crude human PMN extract, 0.2 mM Boc-AAPAN, pH 7.5, 410 mμ, 2 minutes after zero time

Compound	IC50
CC1(C)S[C@@H]2C(OC(=O)Cc3ccccc3)C(=O)N2[C@H]1C(=O)OCc1ccccc1 (some centres unmarked) [(BZ)COO / 0 / OBZ]	47 µM
CC1(C)[C@H](C(=O)OCc2ccccc2)N2C(=O)C(OC(=O)Cc3ccccc3)[C@H]2S1(=O)=O (some centres unmarked) [(BZ)COO / 2 / OBZ]	8.74 µM
